Source: US8796241B2, “Therapy of tumors and infectious agents deficient in methylthioadenosine phosphorylase” (priority 2007, dated 2014)

Assays:
MTAP(−) A549 cells = assay: Clonogenic assay of A549 cells; format: cell-based, human; details: for potentiation of killing of A549 cells by DAP: Example 9
Method: (§1) Cell viability of adherent cell types was measured by clonogenic assay as follows: after releasing cells with trypsin and removing a portion of the cell suspension for Coulter counting, the remainder of the cell suspension was plated in serial dilutions in growth medium, without drugs. After a period sufficient for clones to reach a size visible by eye (usually 2 to 3 weeks), clones were stained with crystal violet in a saline/methanol solution. Dishes that had fewer than 100 clones were deemed suitable for counting. From these counts and from the dilution factors, the approximate number of viable cells, in the parent treatment dishes, was calculated. […] In clonogenic assays, clone size was often variable, especially after treatment with toxic drugs. Moreover, many of the very small clones may have arisen from cells detached during the weeks of incubation. […] Cloning efficiency for healthy, growing A549 cells was about 50%; for HF cells, efficiency was quite variable, ranging from 25 to 75% (perhaps because the HF cell stock varied, from experiment to experiment, in passage number).
A549 cells were incubated for 4 days with additions shown below, and viable cells measured by clonogenic assay. (Results shown are approximate; see Methods) Cell count in dish at start: 40,000
• MTAP(−) A549 lung tumor cell cultures were treated with F-Ade, with or without MTA, 5′-dAdo, or adenine (Ade), for three days. Coulter counts of cells, and viable cells as determined by clonogenic assay, are shown below: • Initial cell number: 10,340*
• A549 cell cultures were treated with DAP, with or without 5′-dAdo or adenine, for three days. After trypsinization, one-fourth of the cell suspension was counted, and raw data is shown below, with duplicate counts for each sample. The cell suspension was also serially diluted for clonogenic assay. • Counts at start of experiment: Dish one: 36,480; 39,160; Dish two: 52,680; 51,360. • Initial viable cells by clonogenic assay: 180,000.
• Cell cultures were treated with MTX or alanosine for one day. DAP was then added and 3 days later, cells were trypsinized and serially diluted for clonogenic assay. Results are shown below: • Initial viable cells: 146,000
• A549 cells were plated, and after they had adhered to the substrate, medium was changed to methionine-free medium with 10% dialyzed serum. L-ethionine (Eth) and MTA were added, and after 4 days, cell cultures were trypsinized and serially diluted for clonogenic assay. • Initial number of viable cells: 160,000*
• A549 cultures were treated with 6-thioguanine (TG) or 2,6,diaminopurine (DAP), or both, for 3 days. • Initial viable cells: 275,000 • After 3 days: […]

[1] = tested on: MTAP(+) hematopoietic cell progenitors; assay: Assay of colony-forming cells from mouse bone marrow; format: cell-based
From the text: Method: The procedure for assay of colony-forming cells from mouse bone marrow was similar to methods described in the literature (see e.g., B. A. Teicher et al, Cancer Research, 47:513-518, 1987). In brief, cells were flushed from the femurs of Swiss mice, counted, and seeded into six-well tissue culture plates with supplemented McCoy's 5A medium, 15% FBS, 10 to 20% L929-cell conditioned medium as a source of colony-stimulating activity (L929 is MTAP-negative), 0.3% agar, and penicillin/streptomycin (op. cit. B. A. Teicher et al). Cells were seeded at two different densities: 50,000 and 250,000 cells per well. Control wells contained either no drugs, or adenine at 15 or 30 μM, or 5′-deoxyadenosine (5′-dAdo) at 15, 30, or 45 μM. Treatment wells contained 6-methylpurine (MeP) at 5 or 15 μM, 5′-deoxyadenosine (5′-dAdo) at 15 or 30 μM, and adenine at 15 or 30 μM, in various combinations. After eight days of incubation at 37° C. in a humidified 5% CO2 atmosphere, wells were fixed by the addition of 1 ml of 5% glutaraldehyde. Photographs were taken of a randomly selected portion of each well, as viewed (at fixed magnification) through a Nikon inverted microscope equipped with a camera.

[2] = tested on: human and mouse tumor cells; assay: Killing of tumor cells by adenine analogs (Applicants' findings, no method given); format: cell-based
MTAP(+) HF cells [3] = assay: Coulter counts of HF cell cultures; format: cell-based, human; details: for Coulter counts: x56 = cells/dish
Method: For adherent cell types (e.g., HF, A549, MCF7) cells were plated in 60 mm -diameter plastic tissue culture dishes and incubated at 37° C. in a humidified 5% CO2 atmosphere, in Dulbecco's Modified Eagle's Medium (DME) with 10% fetal bovine serum (FBS). At the start of an experiment, medium was replaced with DME and 10% dialyzed FBS.
(§2) For adherent cell types, cell numbers were determined periodically by releasing cells with trypsin (dead cells that were no longer adherent were removed by two prior rinses of the culture dish) and placing a portion of the resulting cell suspension in a Coulter counter. For cell types that grow in suspension, portions of the culture were counted directly, without trypsin treatment. Coulter counts of cells from each dish were done twice, and almost all experiments were done in duplicate. In the presentation of results, raw data for Coulter counts is given in some cases, while in others, counts have been rounded off to two to three significant figures. (Background Coulter counts—i.e., counts of diluent alone—were insignificant.)
Cell cultures were treated with MeP, with or without 5′-dAdo or MTA, for 4 days. The cell cultures were then changed to fresh medium, with the addition of 30 μM Ade to inhibit further action of the analog. Two days later cultures were trypsinized and a portion of the suspension was counted.
• A. F-Ade was added to cultures of HF cells, with varying amounts of 5′-dAdo. After 3 days, cell numbers were counted. • Initial cell count: 1,100 • After three days:
• Cultures of human fibroblasts were treated with DAP, 5′-dAdo, MTA, adenine, or MTX. Thymidine (15 μM) was added to all cultures. • Initial count was: 1807 • Counts, as raw data, after 3 days of incubation, are shown below: […]
• Human fibroblasts in culture were treated with 6-thioguanine (TG), 2,6-diaminopurine (DAP), or 5′-dAdo for 3 days. After trypsinization, cell numbers were counted. • Initial cell number: 296,000

MTAP-negative cell lines = assay: Applicants' tissue culture experiments on MTAP-negative cell lines (summary statements); format: cell-based, human; mouse; details: co-administered inhibitor of de novo purine synthesis
MTAP(+) HF cells [4] = assay: Clonogenic assay of HF cells; format: cell-based, human
Method: as §1
• B. F-Ade was added to cultures of MTAP(+) HF cells, with or without 5′-dAdo, for 3 days. Cultures were then trypsinized and serially diluted for clonogenic assay. • Initial number of viable cells per dish: 45,000 • Viable cells after 3 days shown below:
• HF cells were plated, and after they had adhered to the substrate, medium was changed to methionine-free medium, with 10% dialyzed serum. • Initial Coulter count: 73,000*; viable cells: 88,000 • After 3 days in methionine-free medium, with or without L-ethionine (Eth) or MTA: […]

MTAP(−) HL-60 cells = assay: Coulter counts of HL-60 suspension cultures; format: cell-based; details: six days, 5′-dAdo or Ade 60 μM added 3 hours before, where present, initial cell number/ml 8,160
Method: (§3) For cell types that grow in suspension (e.g., ML-1, HL-60, K-562) medium was RPMI-1640 with 10% FBS (undialyzed).
as §2
(§4) For cells that grow in suspension, the effect of treatments was assessed solely by changes in Coulter count.
• HL-60 cells were grown in RPMI 1640 with 10% FBS. 5′-dAdo, adenine, or neither were added, and after 3 hours, 5-fluorouracil (FU) was added to selected dishes. Six days later, cell numbers were assessed in a Coulter counter. • Initial cell number/ml: 8,160

[5] = tested on: MTAP(+) HT29 colon carcinoma cells; assay: Coulter counts of HT29 cultures; format: cell-based, human; details: 4 days, 5′-dAdo 60 μM added one day before, where present, initial count 46,000, x4 = cells/dish
Method: as §2
• 5′-dAdo was added to cultures of MTAP(+) HT29 colon carcinoma cells for one day. 5-fluorouracil (FU) was then added and 4 days later cultures were trypsinized, thoroughly dispersed into mostly single cells by vigorous pipetting, and counted. • Initial Coulter count at time of addition of FU: 46,000

[6] = tested on: MTAP-positive cells and cells lines; assay: Applicants' tissue culture experiments on protection of MTAP-positive cells (summary statements); format: cell-based, human; mouse
MTAP(+) ML-1 cells = assay: Coulter counts of ML-1 suspension cultures; format: cell-based; details: for Increase in cell number/ml, No 5′-dAdo: 2 days, FU 3 μM, TG 20 μM, DAP 50 μM where present, initial Coulter count/ml 308,000; for inhibition of growth of MTAP(+) ML-1 cells: Example 14
Method: as §3, §2, §4
• ML-1 cells were incubated in RPMI 1640 with 10% FBS with 5′-dAdo (60 μM) for 6 hours. 5-fluorouracil (FU), 6-thioguanine (TG), or 2,6-diaminopurine (DAP) were then added, and after 2 additional days, 0.5 ml was taken for Coulter counts. Initial Coulter count/ml: 308,000

[7] = MTX 1 μM or alanosine 3 μM for one day, then DAP 40 μM, 3 days (where present), initial viable cells 146,000

## Cc1ncnc2nc[nH]c12 [MeP, 6-methylpurine]
MTAP(−) A549 cells; 10 μM MeP
  toxicity to A549 cells, clonogenic assay: highly toxic
MTAP(−) A549 cells; 4 days, MeP 10 μM, MTA, 5′-dAdo or Ade 20 μM where present, cell count at start 40,000, approximate
  Viable Cells: 0
[1]; MeP at doses of 5 and 15 μM
  toxicity to colony-forming murine hematopoietic progenitors: highly toxic
[1]; wells seeded at 250,000 cells/well, eight days, MeP 5 or 15 μM, adenine or 5′-dAdo 15 or 30 μM where present, control approximately 40-50 colonies
  colonies observed (each field of view): no colonies
[2]
  killing of human and mouse tumor cells: very rapid and potent killing
MTAP(+) HF cells [3]; MeP 5 μM, 5′-dAdo 20 μM or MTA 10 μM where present, 4 days, then fresh medium with 30 μM Ade, 2 days, initial count 1,157
  Coulter counts: 2,885
MTAP(+) HF cells [3]; MeP 5-10 μM, Example 3
  toxicity to HF cells: strongly toxic

## CN(Cc1cnc2nc(N)nc(N)c2n1)c1ccc(C(=O)N[C@@H](CCC(=O)O)C(=O)O)cc1 [MTX, methotrexate]
MTAP(−) A549 cells
  potentiation of killing of A549 cells by DAP: strongly potentiated
MTAP(−) A549 cells; [7]
  Viable Cells: 89,000
MTAP-negative cell lines
  potentiation of selective killing of MTAP-negative cells by adenine and methionine antagonists: potentiated
MTAP(+) HF cells [3]; 3 days, MTX 10 μM, DAP 100 μM, 5′-dAdo, MTA or Ade 15 μM where present, thymidine 15 μM in all cultures, initial count 1807
  Coulter counts: 3,455

## O=CN(O)CC(=O)O [hadacidin]
MTAP-negative cell lines
  potentiation of selective killing of MTAP-negative cells by adenine and methionine antagonists: potentiated

## CCSCC[C@H](N)C(=O)O [Eth, ethionine]
MTAP(−) A549 cells; 4 days, methionine-free medium, Eth 40 μM, MTA 30 μM where present, initial viable cells 160,000
  Viable Cells: 24,000
MTAP(−) A549 cells; 4 days, methionine-free medium, Eth 80 μM, MTA 30 μM where present, initial viable cells 160,000
  Viable Cells: 5,000
MTAP(+) HF cells [4]; 40 μM L-ethionine, methionine-free medium
  toxicity to HF cells: very toxic
MTAP(+) HF cells [4]; 3 days in methionine-free medium, Eth 40 μM, MTA 15 μM where present, initial viable cells 88,000
  Viable Cells: 1,600

## Nc1ncnc2nc[nH]c12 [Ade, adenine]
MTAP(−) A549 cells; 10 μM MeP
  blocking of MeP toxicity in A549 cells: blocked
MTAP(−) A549 cells; 100 μM DAP, Example 7
  blocking of DAP toxicity in A549 cells: did
MTAP(−) A549 cells; 1 to 2 μM F-Ade
  blocking of F-Ade toxicity in A549 cells: blocked
MTAP(+) HF cells [3]; Example 8
  blocking of DAP toxicity in HF cells: blocked

## O=c1[nH]cc(F)c(=O)[nH]1 [FU, 5-fluorouracil]
MTAP(−) HL-60 cells; FU 10 μM
  Coulter counts/ml: 125,200 counts/ml
MTAP(−) HL-60 cells; FU 30 μM
  Coulter counts/ml: 62,400 counts/ml
[5]; FU 3 μM
  Coulter counts: 65,300
[5]; FU 10 μM
  Coulter counts: 36,600
[5]; FU 30 μM
  Coulter counts: 25,500
[6]
  protection of MTAP-positive cells, but not MTAP-negative cells, from the toxicity of the nucleobase analog: selectively protected
MTAP(+) ML-1 cells
  Increase in cell number/ml, No 5′-dAdo: 436,000 /ml
  inhibition of growth of MTAP(+) ML-1 cells: inhibited growth

## N[C@@H](CN(O)N=O)C(=O)O [Alanosine, alanosine]
MTAP(−) A549 cells
  potentiation of killing of A549 cells by DAP: strongly potentiated
MTAP(−) A549 cells; [7]
  Viable Cells: 118,000
MTAP-negative cell lines
  potentiation of selective killing of MTAP-negative cells by adenine and methionine antagonists: potentiated

## Nc1nc2nc[nH]c2c(=S)[nH]1 [TG, 6-thioguanine]
MTAP(−) A549 cells; 3 days, TG 40 μM, DAP 50 μM where present, initial viable cells 275,000
  Viable Cells: 200,000
[6]
  protection of MTAP-positive cells, but not MTAP-negative cells, from the toxicity of the nucleobase analog: selectively protected
MTAP(+) ML-1 cells
  Increase in cell number/ml, No 5′-dAdo: 114,000 /ml
  inhibition of growth of MTAP(+) ML-1 cells: inhibited growth
MTAP(+) HF cells [3]; 3 days, TG 40 μM, DAP 50 μM, 5′-dAdo 60 μM where present, initial cell number 296,000
  Increase in cells/dish: 72,000 cells/dish
MTAP(+) HF cells [3]; Example 15
  inhibition of HF cell growth: inhibited

## Nc1nc2nn[nH]c2c(=O)[nH]1 [8-azaguanine]
[6]
  protection of MTAP-positive cells, but not MTAP-negative cells, from the toxicity of the nucleobase analog: selectively protected
